From patent publication US8906432B2, “Compositions comprising an NFκB-inhibitor and a non-retinoid collagen promoter” (Johnson & Johnson Consumer Companies, Inc., priority 2009, dated 2014)

How the values were obtained:
[1] = system: Collagen 1A promoter; assay: COLLAGEN PROMOTER ASSAY (Collagen 1A promoter-luciferase reporter in H9C2 cells); format: cell-based, rat; conditions: 1 ug/ml of each active (on active basis), transfected H9C2 cells, 24 hours; for Percent Change Over Vehicle (collagen promotion): vehicle DMSO 0.01%
Protocol: Suitable non-retinoid collagen promoters may be determined, for example, using the COLLAGEN PROMOTER ASSAY. The COLLAGEN PROMOTER ASSAY is performed as follows. Rat cardiac myoblasts H9C2, which may be purchased from ATCC (Manassas, Va.), are used. Cultures are maintained in Dulbecco's modified Eagle's medium (DMEM, Invitrogen Life Technologies, Carlsbad, Calif.) supplemented with 10% fetal bovine serum, 2 mM glutamine, 100 units/ml penicillin, and 50 ug/ml streptomycin (Invitrogen life technologies, Carlsbad, Calif.). Cell cultures are transiently transfected with the Collagen 1A promoter-luciferase reporter construct, driving the firefly luciferase gene, which may obtained for example from PREMAS Biotech Pvt. Ltd (Haryana, India). In all transfections, a construct with the thymidine kinase promoter and the Renilla luciferase reporter gene (pRL-TK, Promega, Madison, Wis.) is included as an internal control. Cells grown in 48-well plates are transfected with 0.45 ug total DNA per well using Lipofectamine 2000 (Invitrogen life technologies, Carlsbad, Calif.). One day after transfection, cells are treated with agents at the indicated concentrations for approximately 24 hours before they are lysed for luciferase assays, using Dual-Luciferase Reporter System from Promega (Madison, Wis.), following manufacturer's protocol. The firefly luciferase activity is measured first (representing collagen promoter activity), followed by the renilla luciferase (internal control), using luminometer LMAX, from Molecular Devices (Sunnyvale, Calif.). The ratio of these two luciferase activities (RLU) is used to evaluate the activity of each promoter.
The COLLAGEN PROMOTER ASSAY was performed on the following compounds: Tanacetum parthenium (parthenolide-free feverfew extract from Integrated Botanical Technologies of Ossining, N.Y.) and 4-hexylresorcinol (Synovea HR, from Sytheon Ltd). The compounds were diluted in cell culture media (DMEM Media of Invitrogen, San Diego Calif.) to the concentration of “active” extract as indicated in Table 3 below. […]

[2] = system: NFκB; assay: NFκB-INHIBITION TEST (NF-kB gene reporter, TNFα-stimulated FB293 cells, luciferase); format: cell-based; conditions: Homo sapiens, 24 h; series of substituted resorcinols, each 10 ug/ml (Table 2); read-out: Percent NF-kB Inhibition
Protocol: The NFκB-INHIBITION TEST is conducted in the following manner. FB293 cells, a stable transfected human epithelial cell line containing the gene reporter for NF-kB are used. They may be obtained from, e.g., Panomics (Fremont, Calif.). FB293 are plated at a density of 5×10^4 cells/mL in a suitable medium, e.g., Dulbecco's modified Eagle's medium (DMEM) supplemented with 10% fetal bovine serum (Invitrogen, San Diego, Calif.). The FB293 cells are stimulated with 100 ng/mL of Tumor Necrosis Factor-α(TNFα, available from Sigma-Aldrich of St Louis, Mo.) in the presence of the test sample. Separately, a control sample is tested wherein no test sample is applied. Following a 24-hour incubation at 37° C. with 5% CO2, cells are lysed with 40 μl of reporter lysis buffer (Promega, Madison, Wis.). A […] aliquot of the lysate is assayed using a luciferase assay kit (Promega) and counted for 10 s in a Lmax luminometer (Molecular Devices, Sunnyvale, Calif.) with the data represented as the relative light unit/second. Percent NFκB Inhibition of the test sample is calculated as: NFκB Inhibition=[1−(Lsample/Lcontrol)]*100 where Lsample is the luminescence of the sample and Lcontrol is the luminescence of the control. […]

Structure (SMILES)	Percent Change Over Vehicle (collagen promotion) [1] [%]	Percent Change Over Vehicle (collagen promotion) ([1]; listed as 4-hexylresorcinol) [%]	Collagen 1A Promoter Activity ([1]; vehicle control = 1.00)	inhibition at 10 µg/mL [2] [%]
CCCCCCc1ccc(O)cc1O [4-Hexylresorcinol]	−3	−3	0.97 ± 0.17	
CCCCCCCCCCCC1c2cc(c(O)cc2O)C(CCCCCCCCCCC)c2cc(c(O)cc2O)[C@H](CCCCCCCCCCC)c2cc(c(O)cc2O)[C@H](CCCCCCCCCCC)c2cc1c(O)cc2O (stereo partly shown) [C-Undecylcalix[4]-resorcinarene]				4.87
